A short description of data set [1]: Solubility in water. It counts as physicochemical. Conditions: for solubility in water compared with parent drug paclitaxel: in words; for solubility: water, read-out: Concentrations reached in water. On the procedure:
Concentrations of 10 mM in water and higher were reached whereas the solubility of paclitaxel is lower as […] in water (K. C. Nicolaou et al., Nature, 1993, 364, 464-466).

Data set [2] has as its system OVCAR-3 cells. The data set is described as follows: In vitro cytotoxicity (anti-proliferative effect) without β-glucuronidase, sulforhodamine B protein dye stain. As to conditions: for ratio IC50 prodrug/IC50 paclitaxel: OVCAR-3, without β-glucuronidase; for cytotoxicity compared with parent drug paclitaxel: in words. In kind it is cell-based. The protocol:
(§1) The anti-proliferative effects of paclitaxel, and the prodrugs 1, 2a and 2b on OVCAR-3 cells were determined by measuring the cell growth with a protein dye stain (H. J. Haisma et al. Cell Biophysics 1994, 24/25, 185-192). Cells were seeded in 96-well tissue culture plates (5000 cells/well) and 24 h later (pro)drugs 1, 2a, 2b or 3 were added with or without excess human β-glucuronidase. After 72 hours the cells were fixed with 25% trichloroacetic acid, stained with 0.4% sulforhodamine B, washed with 1% acetic acid and air-dried. The bound dye was then solubilized with 10 mM Tris and the absorbance read at 492 nm. The antiproliferative effects were expressed as IC50 values, which are the (pro)drug concentrations that gave 50% growth inhibition when compared to control cell growth.

Data set [3] deals with OVCAR-3 cells. The data set is described as follows: In vitro cytotoxicity (anti-proliferative effect) with excess human β-glucuronidase, sulforhodamine B protein dye stain. In kind it is cell-based. As to conditions: OVCAR-3, with β-glucuronidase. On the procedure:
as §1
In general terms: Sulforhodamine B stains cellular protein and so reports cell mass.

The target of data set [4] is T1, human β-glucuronidase (Homo sapiens, UniProt P08236).
T1 construct: lysosomal homotetramer
T1 sequence (P08236 23-651): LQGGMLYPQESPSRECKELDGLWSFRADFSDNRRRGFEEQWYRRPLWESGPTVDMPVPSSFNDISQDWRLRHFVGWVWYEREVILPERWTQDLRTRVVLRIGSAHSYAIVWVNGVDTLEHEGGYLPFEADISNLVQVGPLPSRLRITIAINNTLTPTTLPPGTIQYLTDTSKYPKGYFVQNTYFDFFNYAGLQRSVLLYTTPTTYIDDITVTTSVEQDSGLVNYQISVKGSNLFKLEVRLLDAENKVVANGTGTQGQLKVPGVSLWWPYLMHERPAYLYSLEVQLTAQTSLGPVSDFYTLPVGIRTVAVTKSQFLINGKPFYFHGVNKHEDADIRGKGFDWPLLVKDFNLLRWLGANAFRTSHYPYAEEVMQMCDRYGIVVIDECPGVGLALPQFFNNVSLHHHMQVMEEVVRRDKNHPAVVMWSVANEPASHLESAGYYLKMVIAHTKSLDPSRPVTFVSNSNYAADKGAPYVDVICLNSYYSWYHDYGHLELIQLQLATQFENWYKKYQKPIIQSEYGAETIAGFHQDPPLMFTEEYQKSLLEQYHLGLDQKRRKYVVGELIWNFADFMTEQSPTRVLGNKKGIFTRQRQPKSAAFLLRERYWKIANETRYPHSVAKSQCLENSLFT
The data set is described as follows: Enzyme catalyzed hydrolysis of prodrug by human β-glucuronidase, HPLC. It counts as biochemical. Conditions: for ratio prodrug/paclitaxel: 37° C., pH=6.8, HPLC peak areas; for intermediates (spacer attached to paclitaxel, compounds 5 and 7b) during enzyme catalyzed hydrolysis / enzymatic hydrolysis rate / paclitaxel found in experiment without human β-glucuronidase: in words; for enzymatic hydrolysis rate: appropriate enzyme; for paclitaxel found in experiment without human β-glucuronidase: no enzyme, PBS pH=6.8, 37° C., up to 180 min; for half life of hydrolysis by β-glucuronidase: prodrug 100 μM, enzyme 10 μg mL^-1. The protocol: To 140 μL PBS buffer (pH=6.8) was added 20 μL of a 1 mM solution of prodrug 1 in PBS buffer (pH=6.8) and 20 μL of 1% bovine serum albumin also in PBS buffer (pH=6.8). After incubation of the mixture for 10 min. at 37° C. 20 μL of a solution of 0.1 mg mL^-1 human β-glucuronidase (H. J. Haisma, Hybridoma, in press) was added. Directly after the addition of the enzyme to the reaction mixture an aliquot of 10 μL was taken and diluted with 90 μL cold acetonitrile (-20° C.) in order to stop the enzyme reaction. The reaction mixture was incubated for 3 hr at 37° C. and samples were taken at 15, 30, 45, 60, 90, 120 and 180 min. All samples were quenched by dilution with cold acetonitrile (-20° C.). […] In the later experiment also samples of 10 μL were taken at 0, 15, 30, 45, 60, 90, 120 and 180 min and were also diluted with cold acetonitrile (-20° C.). The samples of both experiments were analyzed by HPLC (C^18 reverse phase column, eluent: gradient of 10% acetonitrile in water to 90% acetonitrile in water, detection at 226 nm). The ratio of prodrug 1 to paclitaxel as shown in table 1 is determined by measuring the peak areas of the appropriate signals. […] All experiments were carried out in duplo.
20 μL of 1 mM solution of prodrug 2b in PBS buffer (pH=6.8) and 20 μL 1% bovine serum albumin also in PBS buffer (pH=6.8) was added to 140 μL PBS buffer (pH=6.8). Subsequently, the mixture was incubated for 10 min. at 37° C. whereafter 20 μL of a solution of 0.1 mg mL^-1 human β-glucuronidase (H. J. Haisma, Hybridoma, in press) was added and the reaction mixture was incubated at 37° C. Samples were taken and quenched at 0, 15, 30, 45, 60, 90, 120 and 180 min as described above for the enzyme assay of prodrug 1. In order to determine that the hydrolysis was caused by β-glucuronidase, another experiment was carried out without addition of β-glucuronidase as described above in example 7. The samples were analyzed as described for example 7 (vide supra). The ratios presented in table 2, are based on peak areas of the appropriate signals. […] All experiment were carried out in duplo.

The nature of data set [5]: Stability assay in PBS buffer pH 6.8, 37° C., HPLC. It counts as physicochemical. As to conditions: for ratio of prodrug/paclitaxel: PBS pH=6.8, 37° C., HPLC peak areas; for stability in PBS buffer: in words, PBS pH=6.8. The protocol:
The prodrugs in examples 1 and 2b were all stable in PBS buffer (PBS buffer=NaCl (8 g/L), KCl (0.2 g/L), Na2 HPO4 (1.15 g/L), KH2 PO4 (0.2 g/L), pH=6.8, see example 4 and 5).
To 3.0 mL PBS buffer, pH=6.8, was added 0.37 mg of prodrug 2b (0.30 μmol). The mixture was placed in a water bath of 37° C. […] The ratios are based on peak areas.
In 1.1 mL PBS buffer, pH=6.8, was dissolved 0.13 mg of prodrug 2a (0.11 μmol) and placed in a water bath of 37° C. […] The ratios are based on peak areas.

For data set [6] the following is noted: K. C. Nicolaou et al., Nature, 1993, 364, 464-466; cited from earlier work.

Molecules are shown by their SMILES. Where a name gives a salt, the structure may show the parent alone.

The values below come from patent publication US5760072A, “Paclitaxel prodrugs, method for preparation as well as their use in selective chemotherapy” (Pharmachemie B.V., priority 1995, dated 1998).

Take `CC(=O)O[C@H]1C(=O)[C@@]2(C)[C@H]([C@H](OC(=O)c3ccccc3)[C@]3(O)C[C@H](OC(=O)[C@H](OC(=O)CCc4ccccc4NC(=O)O[C@@H]4O[C@H](C(=O)O)[C@@H](O)[C@H](O)[C@H]4O)[C@@H](NC(=O)c4ccccc4)c4ccccc4)C(C)=C1C3(C)C)[C@]1(OC(C)=O)CO[C@@H]1C[C@@H]2O` [Prodrug 2b, N-[paclitaxel-2'-O-(2-amino)phenylpropionate]-O-[β-glucuronyl] carbamate sodium salt]: the “solubility in water compared with parent drug paclitaxel” value in data set [1] is reported as “far more better soluble in water as the parent drug paclitaxel”. Besides, in data set [1], the solubility is at least 10 mM. In addition, in data set [2], the “ratio IC50 prodrug/IC50 paclitaxel” value is on record as 122. For the same compound, in data set [2], the “cytotoxicity compared with parent drug paclitaxel” value is given as “less cytotoxic as the parent drug”. Also, the “ratio IC50 activated prodrug with β-glucronidase/IC50 paclitaxel” value (“ratio IC50 activated prodrug” for short) in data set [3] came to 5. Also, the ratio prodrug/paclitaxel in data set [4] (0 min) was 99/1; in data set [4] (15 min), 87/13; in data set [4] (30 min), 74/26; in data set [4] (45 min), 55/45; in data set [4] (60 min), 41/59; in data set [4] (90 min) it was 24/76. For the same compound, the ratio prodrug/paclitaxel in data set [4] (120 min) is listed as 20/80; in data set [4] (180 min), 15/85. Moreover, the “intermediates (spacer attached to paclitaxel, compounds 5 and 7b) during enzyme catalyzed hydrolysis” value in data set [4] is recorded as “no intermediates”. For the same compound, in data set [4], the enzymatic hydrolysis rate entry is on record as “quite fast hydrolyzing rates”. Moreover, the “paclitaxel found in experiment without human β-glucuronidase” value in data set [4] was “no paclitaxel was found”. The “half life of hydrolysis by β-glucuronidase” value in data set [4] was “about 45 min”. Also, the ratio of prodrug/paclitaxel in data set [5] (48 hr) was 92/8; in data set [5] (66 hr), 89/11. In data set [5], the “stability in PBS buffer” value is “stable”.
`CC(=O)O[C@H]1C(=O)[C@@]2(C)[C@H]([C@H](OC(=O)c3ccccc3)[C@]3(O)C[C@H](OC(=O)[C@H](OC(=O)CC(C)(C)CNC(=O)O[C@@H]4O[C@H](C(=O)O)[C@@H](O)[C@H](O)[C@H]4O)[C@@H](NC(=O)c4ccccc4)c4ccccc4)C(C)=C1C3(C)C)[C@]1(OC(C)=O)CO[C@@H]1C[C@@H]2O` [Prodrug 1, N-[paclitaxel-2'-O-3,3-dimethyl butanoate]-O-[β-glucuronyl] carbamate sodium salt]: the “solubility in water compared with parent drug paclitaxel” value in data set [1] is “far more better soluble in water as the parent drug paclitaxel”. In addition, in data set [1], the solubility is at least 10 mM. For the same compound, the “ratio IC50 prodrug/IC50 paclitaxel” value in data set [2] was found to be 90. In addition, the “cytotoxicity compared with parent drug paclitaxel” value in data set [2] was “less cytotoxic as the parent drug”. Also, the “ratio IC50 activated prodrug” value in data set [3] is reported as 3. Besides, the ratio prodrug/paclitaxel is recorded as 99/1 in data set [4] (0 min); 95/5 in data set [4] (15 min); 93/7 in data set [4] (30 min); 87/13 in data set [4] (45 min); 78/22 in data set [4] (60 min); 61/39 in data set [4] (90 min). Further, the figures for the ratio prodrug/paclitaxel in data set [4] (120 min) and in data set [4] (180 min) were 43/57 and 33/67, respectively. Moreover, the “intermediates (spacer attached to paclitaxel, compounds 5 and 7b) during enzyme catalyzed hydrolysis” value in data set [4] is “no intermediates”. Further, the enzymatic hydrolysis rate result in data set [4] is recorded as “quite fast hydrolyzing rates”. The “paclitaxel found in experiment without human β-glucuronidase” value in data set [4] is on record as “no paclitaxel was found”. Further, the “half life of hydrolysis by β-glucuronidase” value in data set [4] was “about 2 hr”. For the same compound, the ratio of prodrug/paclitaxel in data set [5] (48 hr) is on record as 92/8. In data set [5], the “stability in PBS buffer” value is listed as “stable”.
As to `CC(=O)O[C@H]1C(=O)[C@@]2(C)[C@H]([C@H](OC(=O)c3ccccc3)[C@]3(O)C[C@H](OC(=O)[C@H](OC(=O)Cc4ccccc4NC(=O)O[C@@H]4O[C@H](C(=O)O)[C@@H](O)[C@H](O)[C@H]4O)[C@@H](NC(=O)c4ccccc4)c4ccccc4)C(C)=C1C3(C)C)[C@]1(OC(C)=O)CO[C@@H]1C[C@@H]2O` [Prodrug 2a, N-[paclitaxel-2'-O-(2-amino) phenylacetate]-O-[β-glucuronyl] carbamate sodium salt], in data set [1], the “solubility in water compared with parent drug paclitaxel” value is listed as “far more better soluble in water as the parent drug paclitaxel” and the solubility was at least 10 mM. In data set [2], the “ratio IC50 prodrug/IC50 paclitaxel” value turned out to be 1 and the “cytotoxicity compared with parent drug paclitaxel” value is reported as “about as cytotoxic as paclitaxel”. Also, in data set [3], the “ratio IC50 activated prodrug” value is recorded as 1. The ratio of prodrug/paclitaxel in data set [5] (3 hr) is 55/45. In data set [5] (22 hr), the ratio of prodrug/paclitaxel is recorded as 1/99. For the same compound, in data set [5], the “stability in PBS buffer” value is listed as “not stable”. Moreover, the half-life in data set [5] (pbs buffer, pH 6.8, read-out: half time of decomposition to paclitaxel (converted)) is 3 h.
Take `CC(=O)O[C@H]1C(=O)[C@@]2(C)[C@H]([C@H](OC(=O)c3ccccc3)[C@]3(O)C[C@H](OC(=O)[C@H](O)[C@@H](NC(=O)c4ccccc4)c4ccccc4)C(C)=C1C3(C)C)[C@]1(OC(C)=O)CO[C@@H]1C[C@@H]2O` [paclitaxel]: in data set [6], the solubility in water is below 5 nM.
